According to the kinase profiling compilation of Christmann-Franck et al. (2016):

How the values were obtained:
Assay in all cases: radiometric filter-binding kinase assay, Kinase HotSpot
Settings in all cases: compound 0.5 µM; ATP 10 µM
MAPK11 (human) = MAPK11 (human) (UniProt Q15759)
SGK3 (human) = SGK3 (human) (UniProt Q96BR1)
RPS6KA5 KD2 (human) = RPS6KA5 KD2 (human) (UniProt O75582)
FGFR4 (human) = FGFR4 (human) (UniProt P22455)
MAP4K5 (human) = MAP4K5 (human) (UniProt Q9Y4K4)
RPS6KA2 KD1 KD2 (human) = RPS6KA2 KD1 KD2 (human) (UniProt Q15349)
EPHA5 (human) = EPHA5 (human) (UniProt P54756)
RIPK2 (human) = RIPK2 (human) (UniProt O43353)
ACVR1 (human) = ACVR1 (human) (UniProt Q04771)
SIK2 (human) = SIK2 (human) (UniProt Q9H0K1)
EPHA7 (human) = EPHA7 (human) (UniProt Q15375)
DYRK1A (human) = DYRK1A (human) (UniProt Q13627)
PRKCB2 (human) = PRKCB2 (human) (UniProt P05771)
ADRBK2 (human) = ADRBK2 (human) (UniProt P35626)
GRK4 (human) = GRK4 (human) (UniProt P32298)
CAMK1G (human) = CAMK1G (human) (UniProt Q96NX5)
TSSK1B (human) = TSSK1B (human) (UniProt Q9BXA7)
ROS1 (human) = ROS1 (human) (UniProt P08922)
MYLK2 (human) = MYLK2 (human) (UniProt Q9H1R3)
CDC42BPB (human) = CDC42BPB (human) (UniProt Q9Y5S2)
CSNK1D (human) = CSNK1D (human) (UniProt P48730)
PLK3 (human) = PLK3 (human) (UniProt Q9H4B4)
CSNK2A1 (human) = CSNK2A1 (human) (UniProt P68400)
BLK (human) = BLK (human) (UniProt P51451)
FLT3 (human) = FLT3 (human) (UniProt P36888)
AKT3 (human) = AKT3 (human) (UniProt Q9Y243)
DAPK3 (human) = DAPK3 (human) (UniProt O43293)
ABL1 (human) = ABL1 (human) (UniProt P00519)
CDK5 CDK5R1 p25 (human) = CDK5 CDK5R1 p25 (human) (UniProt Q00535+Q15078)
CDK3 CCNE1 (human) = CDK3 CCNE1 (human) (UniProt Q00526+P24864)
WEE1 (human) = WEE1 (human) (UniProt P30291)
PBK (human) = PBK (human) (UniProt Q96KB5)
BRSK1 (human) = BRSK1 (human) (UniProt Q8TDC3)
DYRK1B (human) = DYRK1B (human) (UniProt Q9Y463)
NEK2 (human) = NEK2 (human) (UniProt P51955)
DYRK4 (human) = DYRK4 (human) (UniProt Q9NR20)
CSNK1G2 (human) = CSNK1G2 (human) (UniProt P78368)
CDK7 CCNH MNAT1 (human) = CDK7 CCNH MNAT1 (human) (UniProt P50613+P51948+P51946)
NEK3 (human) = NEK3 (human) (UniProt P51956)
IGF1R (human) = IGF1R (human) (UniProt P08069)

Sequence of CDK5 CDK5R1 p25 (human) (Q00535 whole entry, looked up): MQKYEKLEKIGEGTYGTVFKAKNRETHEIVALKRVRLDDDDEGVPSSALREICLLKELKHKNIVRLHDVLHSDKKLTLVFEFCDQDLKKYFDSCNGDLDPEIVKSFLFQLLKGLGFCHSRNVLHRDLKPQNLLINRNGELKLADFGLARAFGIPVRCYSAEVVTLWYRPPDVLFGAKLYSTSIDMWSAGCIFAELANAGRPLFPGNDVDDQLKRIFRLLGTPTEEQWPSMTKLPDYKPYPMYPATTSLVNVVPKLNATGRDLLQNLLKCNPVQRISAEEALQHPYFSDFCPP
Sequence of CDK5 CDK5R1 p25 (human) (Q15078 whole entry, looked up): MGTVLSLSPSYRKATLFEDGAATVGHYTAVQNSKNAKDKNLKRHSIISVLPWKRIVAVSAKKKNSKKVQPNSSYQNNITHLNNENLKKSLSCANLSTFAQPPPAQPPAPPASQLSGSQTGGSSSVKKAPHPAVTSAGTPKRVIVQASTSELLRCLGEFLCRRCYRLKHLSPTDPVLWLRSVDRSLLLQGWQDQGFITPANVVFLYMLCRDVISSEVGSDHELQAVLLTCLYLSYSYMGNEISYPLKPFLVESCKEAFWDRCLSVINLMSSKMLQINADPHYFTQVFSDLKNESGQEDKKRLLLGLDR
Sequence of RIPK2 (human) (O43353 whole entry, looked up): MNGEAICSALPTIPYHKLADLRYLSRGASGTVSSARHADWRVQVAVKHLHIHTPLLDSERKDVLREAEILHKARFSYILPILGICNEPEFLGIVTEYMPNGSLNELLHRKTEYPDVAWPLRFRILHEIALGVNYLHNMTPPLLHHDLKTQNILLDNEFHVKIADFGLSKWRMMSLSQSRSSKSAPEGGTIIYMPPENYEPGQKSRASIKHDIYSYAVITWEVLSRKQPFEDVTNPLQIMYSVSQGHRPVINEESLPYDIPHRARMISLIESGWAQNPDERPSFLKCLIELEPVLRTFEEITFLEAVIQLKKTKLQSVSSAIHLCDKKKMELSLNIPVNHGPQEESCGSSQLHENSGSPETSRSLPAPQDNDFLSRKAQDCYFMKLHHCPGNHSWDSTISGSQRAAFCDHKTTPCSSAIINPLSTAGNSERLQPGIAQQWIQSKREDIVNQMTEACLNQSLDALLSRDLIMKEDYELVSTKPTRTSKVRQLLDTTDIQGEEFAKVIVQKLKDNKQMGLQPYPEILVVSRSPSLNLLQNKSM
Sequence of ROS1 (human) (P08922 whole entry, looked up): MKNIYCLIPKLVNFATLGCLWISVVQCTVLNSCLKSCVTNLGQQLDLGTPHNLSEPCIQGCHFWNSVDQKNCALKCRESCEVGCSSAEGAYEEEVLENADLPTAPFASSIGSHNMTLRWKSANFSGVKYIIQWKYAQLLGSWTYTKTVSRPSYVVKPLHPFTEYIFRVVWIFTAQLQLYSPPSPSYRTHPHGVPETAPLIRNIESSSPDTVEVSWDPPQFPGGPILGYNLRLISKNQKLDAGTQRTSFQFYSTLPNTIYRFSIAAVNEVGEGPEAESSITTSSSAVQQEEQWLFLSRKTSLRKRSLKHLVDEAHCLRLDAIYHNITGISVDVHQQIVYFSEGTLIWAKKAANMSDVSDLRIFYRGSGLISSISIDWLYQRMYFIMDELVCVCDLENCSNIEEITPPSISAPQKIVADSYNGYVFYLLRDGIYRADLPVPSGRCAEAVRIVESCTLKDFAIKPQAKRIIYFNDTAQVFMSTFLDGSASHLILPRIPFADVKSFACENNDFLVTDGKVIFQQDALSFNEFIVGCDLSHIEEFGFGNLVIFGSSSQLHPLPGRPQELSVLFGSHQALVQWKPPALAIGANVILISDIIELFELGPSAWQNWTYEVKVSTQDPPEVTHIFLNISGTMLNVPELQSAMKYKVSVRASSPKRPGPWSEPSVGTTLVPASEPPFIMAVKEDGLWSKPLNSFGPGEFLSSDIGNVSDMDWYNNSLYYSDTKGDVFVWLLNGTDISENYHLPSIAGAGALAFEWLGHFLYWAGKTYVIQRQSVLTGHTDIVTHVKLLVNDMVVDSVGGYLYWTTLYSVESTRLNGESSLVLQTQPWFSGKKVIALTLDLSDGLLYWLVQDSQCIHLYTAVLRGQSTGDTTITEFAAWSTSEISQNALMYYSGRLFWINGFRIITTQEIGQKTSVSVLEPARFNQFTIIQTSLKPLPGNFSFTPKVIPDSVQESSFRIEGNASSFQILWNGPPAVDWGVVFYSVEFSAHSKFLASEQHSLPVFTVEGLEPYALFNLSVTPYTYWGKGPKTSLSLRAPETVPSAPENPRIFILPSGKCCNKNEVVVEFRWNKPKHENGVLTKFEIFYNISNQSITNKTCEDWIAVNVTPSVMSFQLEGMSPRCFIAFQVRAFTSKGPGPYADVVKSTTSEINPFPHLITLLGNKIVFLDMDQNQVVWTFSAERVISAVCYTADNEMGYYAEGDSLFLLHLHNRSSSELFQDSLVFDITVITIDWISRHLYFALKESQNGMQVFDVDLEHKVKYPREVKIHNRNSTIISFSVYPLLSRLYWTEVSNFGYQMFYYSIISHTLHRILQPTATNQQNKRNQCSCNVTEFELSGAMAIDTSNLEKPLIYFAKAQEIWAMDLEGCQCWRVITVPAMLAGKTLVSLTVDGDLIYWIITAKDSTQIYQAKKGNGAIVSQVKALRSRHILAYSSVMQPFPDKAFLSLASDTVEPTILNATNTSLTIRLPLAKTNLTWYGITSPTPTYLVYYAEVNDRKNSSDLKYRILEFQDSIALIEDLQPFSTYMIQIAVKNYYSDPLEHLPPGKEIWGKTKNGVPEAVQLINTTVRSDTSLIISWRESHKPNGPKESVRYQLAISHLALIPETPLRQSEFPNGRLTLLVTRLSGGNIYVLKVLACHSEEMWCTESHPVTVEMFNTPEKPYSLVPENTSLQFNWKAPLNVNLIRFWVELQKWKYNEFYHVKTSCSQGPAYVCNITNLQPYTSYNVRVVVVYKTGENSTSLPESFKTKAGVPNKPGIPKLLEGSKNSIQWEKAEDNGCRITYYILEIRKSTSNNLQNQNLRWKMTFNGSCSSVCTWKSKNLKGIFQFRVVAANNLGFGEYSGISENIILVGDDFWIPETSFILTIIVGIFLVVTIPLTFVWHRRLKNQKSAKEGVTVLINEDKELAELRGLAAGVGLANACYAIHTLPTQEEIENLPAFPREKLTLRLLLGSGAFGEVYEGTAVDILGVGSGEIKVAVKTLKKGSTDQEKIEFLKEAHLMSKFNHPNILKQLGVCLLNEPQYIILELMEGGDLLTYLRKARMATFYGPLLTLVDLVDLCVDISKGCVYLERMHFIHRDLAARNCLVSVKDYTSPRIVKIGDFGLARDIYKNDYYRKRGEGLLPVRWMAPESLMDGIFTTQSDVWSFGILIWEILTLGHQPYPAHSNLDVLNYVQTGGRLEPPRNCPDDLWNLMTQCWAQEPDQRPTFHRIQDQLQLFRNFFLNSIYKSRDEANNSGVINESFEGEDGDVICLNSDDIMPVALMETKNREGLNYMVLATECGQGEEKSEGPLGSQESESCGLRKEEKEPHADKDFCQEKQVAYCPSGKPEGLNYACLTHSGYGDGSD
Sequence of PBK (human) (Q96KB5 whole entry, looked up): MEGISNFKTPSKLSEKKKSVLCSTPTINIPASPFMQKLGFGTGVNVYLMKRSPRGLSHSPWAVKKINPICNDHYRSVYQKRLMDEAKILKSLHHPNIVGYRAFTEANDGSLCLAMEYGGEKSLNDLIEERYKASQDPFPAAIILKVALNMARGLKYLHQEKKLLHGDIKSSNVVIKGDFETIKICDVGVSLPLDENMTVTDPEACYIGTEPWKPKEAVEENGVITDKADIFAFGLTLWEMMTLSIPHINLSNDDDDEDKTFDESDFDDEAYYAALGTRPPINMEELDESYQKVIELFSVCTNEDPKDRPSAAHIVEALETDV
Sequence of MAP4K5 (human) (Q9Y4K4 whole entry, looked up): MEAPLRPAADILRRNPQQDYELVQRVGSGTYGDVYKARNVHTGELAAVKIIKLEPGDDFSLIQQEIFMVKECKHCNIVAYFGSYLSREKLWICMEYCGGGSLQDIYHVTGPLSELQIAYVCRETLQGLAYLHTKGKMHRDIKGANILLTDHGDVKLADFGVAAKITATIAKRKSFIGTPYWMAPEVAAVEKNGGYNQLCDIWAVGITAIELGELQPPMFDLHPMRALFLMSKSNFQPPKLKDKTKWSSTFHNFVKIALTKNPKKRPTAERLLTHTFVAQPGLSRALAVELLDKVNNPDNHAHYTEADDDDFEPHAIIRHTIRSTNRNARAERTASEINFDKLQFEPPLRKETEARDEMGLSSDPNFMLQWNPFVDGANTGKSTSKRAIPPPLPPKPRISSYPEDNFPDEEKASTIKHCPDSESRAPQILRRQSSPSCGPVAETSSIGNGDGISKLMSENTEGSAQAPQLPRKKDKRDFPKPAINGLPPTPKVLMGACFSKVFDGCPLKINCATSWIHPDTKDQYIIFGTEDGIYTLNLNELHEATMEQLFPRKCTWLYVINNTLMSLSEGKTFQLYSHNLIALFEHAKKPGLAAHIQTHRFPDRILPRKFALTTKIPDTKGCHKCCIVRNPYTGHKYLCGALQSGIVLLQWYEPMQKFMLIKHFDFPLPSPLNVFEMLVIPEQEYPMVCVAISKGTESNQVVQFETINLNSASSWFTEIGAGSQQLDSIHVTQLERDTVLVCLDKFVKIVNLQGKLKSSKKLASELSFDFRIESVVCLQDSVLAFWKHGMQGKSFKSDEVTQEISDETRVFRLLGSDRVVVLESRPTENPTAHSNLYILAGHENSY
Sequence of CSNK2A1 (human) (P68400 whole entry, looked up): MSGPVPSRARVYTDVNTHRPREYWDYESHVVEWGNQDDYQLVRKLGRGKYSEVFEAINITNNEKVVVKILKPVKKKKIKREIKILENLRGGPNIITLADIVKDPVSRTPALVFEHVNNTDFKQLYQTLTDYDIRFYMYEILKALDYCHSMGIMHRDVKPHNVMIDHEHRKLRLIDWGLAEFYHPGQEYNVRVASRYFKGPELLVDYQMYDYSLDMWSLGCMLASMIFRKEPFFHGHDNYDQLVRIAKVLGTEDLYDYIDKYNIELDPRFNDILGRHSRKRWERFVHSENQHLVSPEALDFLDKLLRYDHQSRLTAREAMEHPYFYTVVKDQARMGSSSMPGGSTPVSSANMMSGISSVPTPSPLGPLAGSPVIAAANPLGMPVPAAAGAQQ

| SMILES | residual activity (MAPK11 (human)) [%] | residual activity (SGK3 (human)) [%] | residual activity (RPS6KA5 KD2 (human)) [%] | residual activity (FGFR4 (human)) [%] | residual activity (MAP4K5 (human)) [%] | residual activity (RPS6KA2 KD1 KD2 (human)) [%] | residual activity (EPHA5 (human)) [%] | residual activity (RIPK2 (human)) [%] | residual activity (ACVR1 (human)) [%] | residual activity (SIK2 (human)) [%] | residual activity (EPHA7 (human)) [%] | residual activity (DYRK1A (human)) [%] | residual activity (PRKCB2 (human)) [%] | residual activity (ADRBK2 (human)) [%] | residual activity (GRK4 (human)) [%] | residual activity (CAMK1G (human)) [%] | residual activity (TSSK1B (human)) [%] | residual activity (ROS1 (human)) [%] | residual activity (MYLK2 (human)) [%] | residual activity (CSNK1D (human)) [%] | also measured |
| --- | --- | --- | --- | --- | --- | --- | --- | --- | --- | --- | --- | --- | --- | --- | --- | --- | --- | --- | --- | --- | --- |
| O=c1cc(N2CCOCC2)oc2c1ccc1ccccc12 | 97.9 | 106 | 103 | 108 | 103 | 98.8 | 110 | 104 | 107 | 126 | 98.6 | 79 | 99.9 | 102 | 104 | 102 | 101 | 97 | 97.7 | 97.9 | residual activity (CDC42BPB (human)): 98.3%; residual activity (PLK3 (human)): 64%; residual activity (CSNK2A1 (human)): 70.9%; residual activity (BLK (human)): 104%; residual activity (FLT3 (human)): 104%; residual activity (AKT3 (human)): 98.3%; residual activity (DAPK3 (human)): 94.6%; residual activity (ABL1 (human)): 104%; residual activity (CDK5 CDK5R1 p25 (human)): 98.9%; residual activity (CDK3 CCNE1 (human)): 102%; residual activity (WEE1 (human)): 101%; residual activity (PBK (human)): 103%; residual activity (BRSK1 (human)): 100%; residual activity (DYRK1B (human)): 90.5%; residual activity (NEK2 (human)): 94.8%; residual activity (DYRK4 (human)): 91.9%; residual activity (CSNK1G2 (human)): 102%; residual activity (CDK7 CCNH MNAT1 (human)): 98.2%; residual activity (NEK3 (human)): 111% |
| CCN(CC)C(=O)c1ccc(Nc2nc(OCC3CCCCC3)c3nc[nH]c3n2)cc1 | 85.5 | 97.2 | 89.8 | 94.4 | 78 | 30.9 | 95 | 97.2 | 98.8 | 75.3 | 72.8 | 91.9 | 95 | 92.7 | 93 | 96.1 | 15.3 | 69.9 | 94.7 | 102 | residual activity (CDC42BPB (human)): 99.3%; residual activity (PLK3 (human)): 98.1%; residual activity (CSNK2A1 (human)): 87.4%; residual activity (BLK (human)): 60.9%; residual activity (FLT3 (human)): 10.3%; residual activity (AKT3 (human)): 101%; residual activity (DAPK3 (human)): 98.4%; residual activity (IGF1R (human)): 28.4%; residual activity (ABL1 (human)): 67.1%; residual activity (CDK5 CDK5R1 p25 (human)): 77.2%; residual activity (CDK3 CCNE1 (human)): 90.4%; residual activity (WEE1 (human)): 110%; residual activity (PBK (human)): 116%; residual activity (BRSK1 (human)): 84%; residual activity (DYRK1B (human)): 90.2%; residual activity (NEK2 (human)): 91.4%; residual activity (DYRK4 (human)): 93.6%; residual activity (CSNK1G2 (human)): 59.8%; residual activity (CDK7 CCNH MNAT1 (human)): 87.6%; residual activity (NEK3 (human)): 69.4% |
| O=C(Nc1cccc(Nc2nccc(Nc3cccc(C(F)(F)F)c3)n2)c1)C1CC1 | 103 | 111 | 101 | 101 | 94.9 | 101 | 96.2 | 81.6 | 111 | 103 | 112 | 107 | 98 | 93.1 | 96.9 | 98.8 | 100 | 65.5 | 93.6 | 111 | residual activity (CDC42BPB (human)): 96.6%; residual activity (PLK3 (human)): 90.2%; residual activity (CSNK2A1 (human)): 94.1%; residual activity (BLK (human)): 99.8%; residual activity (FLT3 (human)): 73.1%; residual activity (AKT3 (human)): 108%; residual activity (DAPK3 (human)): 94.3%; residual activity (IGF1R (human)): 95.7%; residual activity (ABL1 (human)): 94.9%; residual activity (CDK5 CDK5R1 p25 (human)): 99%; residual activity (CDK3 CCNE1 (human)): 98.1%; residual activity (WEE1 (human)): 95.6%; residual activity (PBK (human)): 101%; residual activity (BRSK1 (human)): 97.1%; residual activity (DYRK1B (human)): 96.3%; residual activity (NEK2 (human)): 95.3%; residual activity (DYRK4 (human)): 107%; residual activity (CSNK1G2 (human)): 101%; residual activity (CDK7 CCNH MNAT1 (human)): 92.6%; residual activity (NEK3 (human)): 95.8% |
| COc1ccc2c(c[n+](C)c3c4cc5c(cc4ccc23)OCO5)c1OC | 91.6 | 96 | 83.3 | 90.1 | 89.3 | 86.1 | 94.6 | 105 | 93.2 | 95.5 | 95.4 | 103 | 100 | 88.4 | 94.8 | 100 | 97.3 | 119 | 95.3 | 92.9 | residual activity (CDC42BPB (human)): 107%; residual activity (PLK3 (human)): 100%; residual activity (CSNK2A1 (human)): 83.3%; residual activity (BLK (human)): 98.7%; residual activity (FLT3 (human)): 76.9%; residual activity (AKT3 (human)): 103%; residual activity (DAPK3 (human)): 102%; residual activity (IGF1R (human)): 93.3%; residual activity (ABL1 (human)): 92.7%; residual activity (CDK5 CDK5R1 p25 (human)): 86.2%; residual activity (CDK3 CCNE1 (human)): 91.7%; residual activity (WEE1 (human)): 108%; residual activity (PBK (human)): 102%; residual activity (BRSK1 (human)): 90.8%; residual activity (DYRK1B (human)): 102%; residual activity (NEK2 (human)): 98.6%; residual activity (DYRK4 (human)): 95.1%; residual activity (CSNK1G2 (human)): 96.8%; residual activity (CDK7 CCNH MNAT1 (human)): 91.9%; residual activity (NEK3 (human)): 95.1% |
| O=S(=O)(c1cccc2cnccc12)N1CCCNCC1 | 91.9 | 91.6 | 62.1 | 82.8 | 36.3 | 79.9 | 90.5 | 86.4 | 96.5 | 97.7 | 97.3 | 99.4 | 101 | 100 | 104 | 101 | 93.5 | 101 | 99.6 | 99.7 | residual activity (PLK3 (human)): 102%; residual activity (CSNK2A1 (human)): 94.9%; residual activity (BLK (human)): 85.3%; residual activity (FLT3 (human)): 103%; residual activity (AKT3 (human)): 94.1%; residual activity (DAPK3 (human)): 93%; residual activity (IGF1R (human)): 112%; residual activity (ABL1 (human)): 96.8%; residual activity (CDK3 CCNE1 (human)): 76.6%; residual activity (WEE1 (human)): 99.9%; residual activity (PBK (human)): 100%; residual activity (BRSK1 (human)): 97.5%; residual activity (DYRK1B (human)): 96.3%; residual activity (NEK2 (human)): 92.3%; residual activity (DYRK4 (human)): 97.9%; residual activity (CSNK1G2 (human)): 93.7%; residual activity (CDK7 CCNH MNAT1 (human)): 95.5% |
